Source: EPA's ToxValDB 9.5
In brackets after ≈: the same amount, converted by molar mass.

Key:
Daphnia magna = details: chronic/long-term; duration: 21 days; reproduction
Cyprinus carpio = details: acute; duration: 96 hours; mortality
Homo sapiens = details: clinical; duration: 15 days; inhalation; clinical signs
Apis mellifera = details: acute, mortality
Oryctolagus sp. = details: oral
Tagia sp. = details: for LC50: acute
Plant = details: not reported; seedling emergence
Pleurozium sp. = details: acute; duration: 72 hours; growth
Colinus virginianus = details: for LC50 / LD50: acute, oral; for LC50: diet
Rattus norvegicus = details: for LD50: acute, mortality
Anas platyrhynchos = details: oral, mortality
Ovis sp. = details: subchronic, oral, diet
Bovidae = details: oral, diet
Gallus gallus = details: for LEL: subchronic, oral, diet, Chicken, no effects
Mus musculus = details: acute; inhalation; mortality
Danio rerio = details: acute; duration: 96 hours; mortality
Oncorhynchus mykiss = details: for LC50: duration: 96 hours, mortality; for NOEC: chronic/long-term
Pontoscolex corethrurus = details: chronic/long-term; growth
Typhlodromus pyri = experiment: LR50; higher = less toxic; details: acute, mortality
Meleagris sp. = details: subchronic, oral, feed, no effects
Hypoaspis aculeifer = details: chronic/long-term; duration: 14 days; mortality
Folsomia candida = details: chronic/long-term; duration: 28 days; mortality
Bibionidae = details: chronic/long-term; duration: 28 days; seedling emergence
Lymnaea stagnalis = details: chronic/long-term; duration: 50 days
Anser anser = details: short-term; duration: 28 days; oral; feed; no effects
Anatidae = details: short-term; duration: 28 days; oral; feed; no effects
Equus caballus = details: short-term; duration: 21 days; no effects
Pimephales promelas = details: chronic/long-term; duration: 36 days; mortality
Leuciscus idus = details: chronic/long-term; duration: 66 days; mortality

CC(=O)O [Acetic acid]
NOEC (Daphnia magna): 22.7 mg/L
LC50 (Cyprinus carpio): 43.8 µg/mL (≈ 729 µM)
NOAEC (Homo sapiens): 10 mg/m3
LD50 (Apis mellifera; dermal): > 96 µg/piece
LD50 (Apis mellifera; oral, unspecified): > 110 µg/piece
NOAEL (Oryctolagus sp.; reproduction developmental, mortality): 16 mg/kg-day
LC50 (Tagia sp.; mortality): > 1000 mg/kg

O=C(Nc1ccc([N+](=O)[O-])cc1)Nc1ccc([N+](=O)[O-])cc1 [4,4'-Dinitrodiphenylurea]
NOEC (Plant): 2.9 mg/kg
NOEC (Pleurozium sp.): 0.042 µg/L
LC50 (Tagia sp.; duration: 14 days, no effects): > 1000 mg/kg

C#CCOc1ccc(CCNC(=O)C(OCC#C)c2ccc(Cl)cc2)cc1OC (centres undefined) [Mandipropamid]
NOAEL (Canidae; subchronic, duration: 90 days, oral, Dog Other, body weight): 25 mg/kg-day
LC50 (Colinus virginianus; mortality): > 2140 mg/kg-day
NOEL (Colinus virginianus; reproduction developmental): 83.6 mg/kg-day
LD50 (Rattus norvegicus; oral): > 5000 mg/kg-day
NOEL (Rattus norvegicus; chronic, body weight): 20 mg/kg-day
NOAEL (Rattus norvegicus; chronic, duration: 2 years, body weight): 15.2 mg/kg-day
LD50 (Anas platyrhynchos; acute, unspecified): > 1000 mg/kg-day

CO[C@@H]1[C@@H](OC)[C@H](C)[C@@](O)(CC(=O)O)O[C@H]1[C@H](C)[C@H]1O[C@@]2(CC[C@@](C)([C@H]3CC[C@@](C)([C@@H]4O[C@@H]([C@H]5O[C@](C)(O)[C@H](C)C[C@@H]5C)C[C@@H]4O[C@@H]4C[C@H](OC)[C@@H](OC)[C@H](C)O4)O3)O2)C[C@H](O)[C@H]1C.N [Maduramicin ammonium]
LEL (Ovis sp.; gross pathology): ≥ 2.5 mg/kg-day
NOAEL (Canidae; acute, duration: 3 hours, M/F, Beagle, no effects): ≥ 0.1 mg/kg-day
LEL (Bovidae; short-term, duration: 28 days, no effects): 0.15 mg/kg-day
LEL (Sus scrofa; repeat dose other, oral, diet, Not specified, mortality): 37.5 mg/kg-day
LOAEL (Oryctolagus sp.; short-term, duration: 2 weeks, diet, mortality): 0.075 mg/kg-day
NOEL (Rattus norvegicus; chronic, duration: 2 years, oral, diet): 0.16 mg/kg-day
NOAEL (Rattus norvegicus; chronic, duration: 2 years, oral, diet, M/F, organ weight): 0.12 mg/kg-day
NOAEL (Rattus norvegicus; reproduction developmental, M/F, body weight): 0.1 mg/kg-day

ClC1=C(Cl)C2(Cl)C3C(Cl)C=CC3C1(Cl)C2(Cl)Cl (centres undefined) [Heptachlor]
LOAEL (Gallus gallus; repeat dose other, reproduction): 0.01 mg/kg-day
NOAEL (Bovidae; subchronic, F): 6 mg/kg-day
LEL (Sus scrofa; subchronic, duration: 78 days, oral, Not specified, histopathology: nonneoplastic): 2 mg/kg-day

O=S(=O)(F)F [Sulfuryl fluoride]
LC50 (Mus musculus): 1.67 µg/mL (≈ 16.4 µM)
LC50 (Danio rerio): 0.89 µg/mL (≈ 8.72 µM)
NOAEL (Rattus norvegicus; chronic, duration: 2 years, histopathology: nonneoplastic): 20 mg/kg-day
NOEL (Rattus norvegicus; short-term, duration: 2 days, F, Fischer 344): 300 mg/kg-day
NOAEL (Rattus norvegicus; subchronic, duration: 90 days, inhalation, histopathology: nonneoplastic): 100 mg/kg-day

O=c1[nH]c(=O)[nH]c(=O)[nH]1 [Cyanuric acid]
NOAEL (Ovis sp.; duration: 77 days, body weight): 600 mg/kg-day
LEL (Sus scrofa; acute, duration: 3 days, oral, diet, Not specified, no effects): 400 mg/kg-day
LEL (Oncorhynchus mykiss; acute, duration: 3 days, oral, capsule, no effects): 390 mg/kg-day
NOAEL (Rattus norvegicus; chronic, duration: 2 years, oral, drinking water, histopathology: nonneoplastic): 154 mg/kg-day

CC[N+](CC)(CC(=O)Nc1c(C)cccc1C)Cc1ccccc1.O=C([O-])c1ccccc1 [Denatonium benzoate]
NOEC (Daphnia magna): 5 mg/L
LC50 (Colinus virginianus; mortality): 778 mg/kg-day
LD50 (Colinus virginianus; mortality): 196 mg/kg
LC50 (Anas platyrhynchos; short-term, feed): 842 mg/kg-day

OC[C@H]1OC(O[C@H]2[C@H](O)[C@@H](CO)OC(O[C@H]3[C@H](O)[C@@H](CO)OC(O)[C@@H]3O)[C@@H]2O)[C@H](O)[C@@H](O)[C@@H]1O (some centres undefined) [Laminaran]
LD50 (Colinus virginianus; mortality): > 1700 mg/kg-day
LEL (Colinus virginianus; chronic, mortality): > 170 mg/kg-day
NOEC (Pontoscolex corethrurus): 262 mg/kg
LD50 (Apis mellifera; dermal): > 100 µg/piece
LD50 (Apis mellifera; oral, unspecified): > 119 µg/piece
LC50 (Danio rerio): > 71.3 µg/mL
LD50 (Rattus norvegicus; oral): > 2000 mg/kg-day
NOAEL (Rattus norvegicus; subchronic, duration: 90 days, oral, no effects): 1000 mg/kg-day
LR50 (Typhlodromus pyri): 115 g/ha

O=C(O)c1ccccc1 [Benzoic acid]
LEL (Gallus gallus; duration: 36 days, M): 1500 mg/kg-day
LEL (Meleagris sp.; duration: 42 days, F): 1500 mg/kg
LEL (Sus scrofa; repeat dose other, F, Large White x Landrace, clinical chemistry): 20000 mg/kg-day
LEL (Sus scrofa; repeat dose other, oral, diet, Not specified, histopathology: nonneoplastic): 10000 mg/kg-day
LEL (Sus scrofa; subchronic, duration: 42 days, oral, diet, M/F, Not specified, no effects): 5000 mg/kg-day
LEL (Sus scrofa; subchronic, duration: 84 days, oral, diet, Not specified, organ weight): 20000 mg/kg-day
NOEC (Pontoscolex corethrurus): 384 mg/kg
NOEC (Hypoaspis aculeifer): 1000 mg/kg
LC50 (Oncorhynchus mykiss; acute): > 9 µg/mL
NOEC (Folsomia candida): 143 mg/kg
LD50 (Rattus norvegicus; oral): > 1700 mg/kg-day
NOAEL (Rattus norvegicus; chronic, duration: 2 years, oral, diet, other): 500 mg/kg-day
NOAEL (Rattus norvegicus; chronic, duration: 16 weeks, oral, histopathology: nonneoplastic): 500 mg/kg-day

CCCc1ncc(C[n+]2ccccc2C)c(N)n1.Cl.[Cl-] [Amprolium hydrochloride]
LEL (Gallus gallus; duration: 43 days, M/F): 625 mg/kg-day
NOEC (Bibionidae): 101 mg/kg
NOEC (Tagia sp.; reproductive, reproduction): 100 mg/kg

O=[N+]([O-])[O-].O=[N+]([O-])[O-].O=[N+]([O-])[O-].[Al+3] [Aluminum nitrate]
NOEC (Lymnaea stagnalis): 0.1 mg/L

CO[C@@H]1[C@@H](O)[C@H](C)[C@@](O)(CC(=O)[O-])O[C@H]1[C@H](C)[C@H]1O[C@@]2(CC[C@@](C)([C@H]3CC[C@@](C)([C@@H]4O[C@@H]([C@H]5O[C@](C)(O)[C@H](C)C[C@@H]5C)C[C@@H]4O[C@H]4CC[C@H](OC)[C@@H](C)O4)O3)O2)C[C@H](O)[C@H]1C.[Na+] [Semduramicin sodium]
LEL (Meleagris sp.; duration: 12 weeks): 25 mg/kg
LEL (Anser anser): 25 mg/kg
NOAEL (Canidae; chronic, duration: 12 months, Dog Other, histopathology: nonneoplastic): 0.3 mg/kg-day
LEL (Anatidae): 25 mg/kg
LEL (Equus caballus): 0.25 mg/kg-day
LEL (Oryctolagus sp.; subchronic, duration: 42 days, diet, M/F, no effects): 25 mg/kg-day
NOAEL (Rattus norvegicus; chronic, duration: 2 years, oral, diet, clinical chemistry): 0.125 mg/kg-day

CNC(=O)/C(=N/OC)c1ccccc1COc1cc(C)ccc1C [Dimoxystrobin]
NOEC (Pimephales promelas): 16 µg/L
NOEC (Oncorhynchus mykiss; duration: 28 days, body weight): 10 µg/L
NOEC (Oncorhynchus mykiss; duration: 97 days, biomass): 1 µg/L
NOEC (Leuciscus idus): 15 µg/L

[Ca+2].[S-]SSS[S-] [Calcium polysulfide]
LD50 (Apis mellifera; duration: 48 hours, oral, unspecified): > 69.8 µg/piece
LC50 (Oncorhynchus mykiss; acute): 2.67 µg/mL
LC50 (Tagia sp.; mortality): > 1000 mg/kg
LD50 (Rattus norvegicus; oral): 1340 mg/kg-day
NOAEL (Rattus norvegicus; subchronic, duration: 90 days, oral, clinical chemistry): 150 mg/kg-day
LR50 (Typhlodromus pyri; duration: 7 days): 113 g/ha
